This note sets out measurements from ChEMBL document CHEMBL3217495, “Interaction of long telomeric DNAs with macrocyclic hexaoxazole as a G-quadruplex ligand” (Medchemcomm, 2013).

Structures are written as SMILES. Active and inactive are the calls of the source. No cut-off for these calls is given here.

Experiment [1] in a line: Binding affinity to telo24 G-quadruplex DNA (unknown origin) assessed as change of topology from hybrid-type to anti-parallel form by CD spectrometry in presence of KCl.
Experiment [2] in a line: Binding affinity to telo48 G-quadruplex DNA (unknown origin) assessed as appearance of new bands with longer migration distances after 14 hrs by electrophoresis mobility shift assay.
A short description of experiment [3]: Stabilization of telo96 G-quadruplex DNA (unknown origin) assessed as melting temperature at 16 eq. by spectropolarimeter analysis in presence of KCl (reference value: 55 degC).
The nature of experiment [4]: Binding affinity to telo96 G-quadruplex DNA (unknown origin) assessed as appearance of new bands with longer migration distances after 14 hrs by electrophoresis mobility shift assay.
Experiment [5] can be described thus: Stabilization of telo72 G-quadruplex DNA (unknown origin) assessed as melting temperature at 12 eq. by spectropolarimeter analysis in presence of KCl (reference value: 55 degC).
Experiment [6] can be described thus: Stabilization of telo48 G-quadruplex DNA (unknown origin) assessed as melting temperature at 8 eq. by spectropolarimeter analysis in presence of KCl (Rvb= 57 degC).
Experiment [7] in a line: Binding affinity to telo96 G-quadruplex DNA (unknown origin) assessed as change of topology from hybrid-type to anti-parallel form by CD spectrometry in presence of KCl.
A short description of experiment [8]: Binding affinity to telo72 G-quadruplex DNA (unknown origin) assessed as change of topology from hybrid-type to anti-parallel form by CD spectrometry in presence of KCl.
Experiment [9] in a line: Binding affinity to telo72 G-quadruplex DNA (unknown origin) assessed as appearance of new bands with longer migration distances after 14 hrs by electrophoresis mobility shift assay.
Experiment [10] is described as follows: Stabilization of telo24 G-quadruplex DNA (unknown origin) assessed as melting temperature at 4 eq. by spectropolarimeter analysis in presence of KCl (reference value: 59 degC).
A short description of experiment [11]: Binding affinity to telo48 G-quadruplex DNA (unknown origin) assessed as change of topology from hybrid-type to anti-parallel form by CD spectrometry in presence of KCl.
A short description of experiment [12]: Binding affinity to telo24 G-quadruplex DNA (unknown origin) assessed as appearance of new bands with longer migration distances after 14 hrs by electrophoresis mobility shift assay.
Experiment [13] is described as follows: Binding affinity to telo24 G-quadruplex DNA (unknown origin) assessed as compound:telo24 complex formation at ratio of 2:1 after 14 hrs by electrophoresis mobility shift assay.

`NCCCC[C@@H]1NC(=O)c2coc(n2)-c2coc(n2)-c2coc(n2)[C@H](CCCCN)NC(=O)c2coc(n2)-c2coc(n2)-c2coc1n2`: the outcome in [1], in experiment [2], in [4], in [7], in experiment [8] and in experiment [9] was Active. Also, the result in experiment [11], in experiment [12] and in [13] was Active. Further, the Tm in [3] turned out to be 70 °C; in experiment [5], 73 °C; in experiment [6], 76 °C; in experiment [10] it was 75 °C.
